Legend:
slice of a rat heart = test: spontaneous activity potential of cultivated rat heart slice on integrated multiple electrode; format: cell-based; conditions: final concentration of 1 mM, added on the fifth day of the culturing
Excerpt: This slice of a rat heart has been cultivated as explained below. […] The same culture medium as described in the first example was used. The structure of the integrated multiple electrode 2 and the surface processing was the same as described in the first example. In order to increase the adhesive strength between the tissue (the cells) and the microelectrodes 11 of the integrated multiple electrode 2, collagen gel (under 50 μm thick) has been applied to the surface of the integrated multiple electrode 2 before the culturing. Then the rat heart slice is placed and cultivated on the collagen gel where the microelectrodes 11 are. The rat heart slice is prepared, so that a sinoatrial node or an atrioventricular node is included. […] This culturing method is explained below. (a) A heart is taken from a two days old SD rat, and immersed in a Hanks' balanced salt solution cooled with ice water, with 0.25 vol. % D-glucose. The hanks' balanced salt solution is renewed several times to rinse out the blood completely. (b) Careful incision and preparation of a heart slice is performed, so that a sinoatrial node and an atrioventricular node are included in the heart slice. (c) The slice is adjusted with micro-scissors used in eye surgery to a size of about 1×1 mm. […]

[1] = test system: slice of the cerebral cortex of a rat; test: induced potential of cultivated rat cerebral cortex slice on integrated multiple electrode; format: cell-based; conditions: for chronic effect on the induced potential: 3 days after addition on the third day of culturing
Experimental: In this example, a slice of the cerebral cortex of a rat was used as nervous tissue and cultivated with the culturing method described below. As a change in the physical and chemical environment, the stimulant drug methamphetamine has been added to the culturing fluid. Furthermore, the electrophysiological properties of the tissue or cells, that is the induced potential when a stimulus has been applied, were measured as the physical and chemical properties of the tissue or cells.
Preceding the culturing of the cells, the surface of the integrated multiple electrode 2 was covered with collagen gel not thicker than 50 μm, to promote the adhesive strength between the microelectrodes 11 of the integrated multiple electrode 2 and the cells. Then the cerebral cortex slice of the rat (not thicker than 500 μm) was placed and cultivated on top of the microelectrodes 11 and the collagen gel. FIGS. 10(a)-(e) show the measured induced potentials 30 min after methamphetamine has been added in different concentrations to the culture medium on the sixth day of culturing, and FIGS. 11(a)-(c) show the measured induced potentials 3 days after methamphetamine has been added in different concentrations to the culture medium on the third day of culturing, together with the induced potential before the addition of the methamphetamine. In other words, FIGS. 10(a)-(e) show the acute effect of the methamphetamine and FIGS. 11(a)-(c) show the chronic effect of the methamphetamine.
(4-2) Culturing Method for a Rat Cerebral Cortex Slice
(a) A brain is taken from a two days old SD rat, and immersed in a Hanks' balanced salt solution cooled in iced water, with 0.25 vol. % D-glucose.
(b) In the cooled Hanks' balanced salt solution with 0.25 vol.% D-glucose, the meninges attached to the brain is removed carefully without damaging the cerebral cortex with a sharp-tipped pincette.
(c) A section is made with micro-scissors used in eye surgery, about 500 μm from the corpus callosum on one side of the cerebral cortex from which the meninges has been removed along the corpus callosum from the occipital lobe towards the frontal lobe.
(d) Next, a slice is prepared with micro-scissors used in eye surgery by cutting vertically 200-300 μm into the cerebral cortex from the sectional plane described under (c).
(e) Furthermore, the slice is adjusted with micro-scissors used in eye surgery to a size of about 1×1 mm.
(f) The integrated multiple electrode, the preparation of which has been explained under “(3) Surface Processing of the Integrated Multiple Electrode 2”, is taken out of the CO2 incubator, the adjusted slice of the cerebral cortex is carefully taken up without damaging it with a pipette with at least 2 mm opening diameter, and moved into the well of the integrated multiple electrode 2.
(g) The cerebral cortex is placed on the microelectrodes 11 with a layered portion pointing upwards, carefully so as not to damage the cerebral cortex, using a Pasteur pipette, the tip of which has been smoothed by heating with a burner.
(h) After the slice of the cerebral cortex has been placed on the integrated multiple electrode 2, the amount of the culture medium is adjusted so that the bottom of the slice is immersed in the culture medium and the top of the slice is in the open air.
(i) After the adjustment of the culture medium, the integrated multiple electrode 2 is placed on a Petri dish, about 5 mL of 37° C. sterile water is poured onto the Petri dish to prevent dehydration of the culture medium, and the integrated multiple electrode 2 is again placed in the CO2 incubator.
(j) While observing the amount of the culture medium, the culture medium was renewed once every day. The amount of the culture medium is adjusted as described in (i).

Row | SMILES | beat frequency of the spontaneous activity potential versus before the addition (slice of a rat heart) | chronic effect on the induced potential ([1]; 0.01 mM methamphetamine) | acute effect on the induced potential ([1]; 0.1 mM methamphetamine, 30 min after addition on the sixth day of culturing) | chronic effect on the induced potential ([1]; 0.1 mM methamphetamine) | acute effect on the induced potential (deflection) ([1]; 0.5 mM methamphetamine, 30 min after addition on the sixth day of culturing) | acute effect on the induced potential ([1]; 1 mM methamphetamine, 30 min after addition on the sixth day of culturing) | induced potential after removal of the substance (chronic) ([1]; after the methamphetamine has been removed, chronic exposure) | induced potential after removal of the substance (acute) ([1]; methamphetamine removed from the fluid, culture medium returned to usual composition)
1 | CNCC(O)c1ccc(O)c(O)c1 (centres unmarked) [adrenaline] | noticeably higher |  |  |  |  |  |  | 
2 | CN[C@@H](C)Cc1ccccc1 [methamphetamine] |  | disappeared | no noticeable acute effect | disappeared almost completely | somewhat smaller | disappeared almost completely | did not recover | recovered to almost the same condition as before

From patent US6890762B1, “Method for measuring physiocochemical properties of tissues of cells, method for examining chemicals, and apparatus therefor” (Matsushita Technical Information Services Co., Ltd., priority 1996, dated 2005)
